Experimental data: publication PMC8973283, “First-in-Humans Evaluation of a PD-L1–Binding Peptide PET Radiotracer in Non–Small Cell Lung Cancer Patients” (Journal of Nuclear Medicine, 2022)

Experiments:
NSCLC lesions [1] = settings: human, in vivo
Method: Patients were injected intravenously with ^68Ga-NOTA-WL12 (1.9–3.7 MBq/kg). To determine the optimal peptide dose required to obtain high-contrast images, an escalated nonradiolabeled WL12 mass dose was coadministered with the imaging agent. The first 2 patients received 0 μg, the next 3 received 5 ug, then 60 ug, and the final group of 3 received 120 μg. […] The first patient underwent a dynamic scan at 6 time points in 1 h. The remaining 8 patients underwent PET/CT at 1 h after injection, and 6 of those were also scanned at 2 h after injection (2 patients were unable to tolerate the full 2-h examination). […] Images were reconstructed with ordered-subset expectation maximization. […] CT data were used to correct the PET images for attenuation. Vital signs, laboratory studies, and electrocardiograms were obtained before injection, during the screening period, and 2 d after PET/CT.
Images were analyzed by 2 experienced nuclear medicine physicians. […] To compare the uptake differences between the liver, spleen, small intestine (SI), and kidney among patients coadministered with different doses of WL12, multisite measurement was applied, and the uptake was calculated as an average of the number of patients corresponding to different dose administrations separately (Supplemental Fig. 3). […]

NSCLC lesions [2] = settings: human, in vivo; cited from earlier work
PD-L1 (CHO-hPD-L1 cells) = target: T1, PD-L1 (CHO-hPD-L1 cells) (Homo sapiens, UniProt Q9NZQ7); test: In vitro cellular uptake in CHO-hPD-L1 versus CHO cells; format: cell-based; settings: CHO-hPD-L1 vs CHO cells
T1 construct: expressed in transfected cells
T1 sequence (Q9NZQ7 19-290): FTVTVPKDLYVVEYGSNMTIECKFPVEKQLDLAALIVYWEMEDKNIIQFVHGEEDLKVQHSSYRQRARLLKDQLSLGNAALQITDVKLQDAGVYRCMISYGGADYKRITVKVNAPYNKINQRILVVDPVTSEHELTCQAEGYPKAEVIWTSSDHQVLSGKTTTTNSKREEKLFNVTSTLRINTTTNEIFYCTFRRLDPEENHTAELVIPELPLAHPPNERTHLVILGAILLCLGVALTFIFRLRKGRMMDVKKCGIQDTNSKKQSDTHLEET
From the text: The Chinese hamster ovary (CHO) cell line was obtained from American Type Culture Collection. A CHO cell line with constitutive PD-L1 expression (CHO-hPD-L1) was generated in our laboratory and described previously ([23]). Details of the cell culture, flow cytometry analysis for PD-L1 expression, and in vitro assays are provided in the supplemental materials.

CHO tumors = test: Small-animal PET of NOD/SCID mice bearing negative control CHO tumors; format: in vivo
[3] = Radiation dosimetry in patients (OLINDA/EXM); format: in vivo, human; settings: administered dose 224 ± 37 MBq, n = 4
Method: Data from 4 patients with 120 μg of coinjected WL12 were used for ^68Ga-NOTA-WL12 dosimetry analysis, and the heart contents, lungs, liver, spleen, pancreas, kidneys, uterus, urinary bladder contents, and body remainder were selected as source organs. The volumes of the source organs manually drawn on CT images were calculated, and their mean counts/mL (kBq/mL) were determined from PET images at 1 and 2 h time points. Dosimetry was estimated using OLINDA/EXM software (version 2.0; Hermes Medical Solutions AB). Detailed procedures are provided in the supplemental materials.

[4] = Clinical safety monitoring after PET/CT; format: in vivo, human
Method: Patients were injected intravenously with ^68Ga-NOTA-WL12 (1.9–3.7 MBq/kg). To determine the optimal peptide dose required to obtain high-contrast images, an escalated nonradiolabeled WL12 mass dose was coadministered with the imaging agent. The first 2 patients received 0 μg, the next 3 received 5 ug, then 60 ug, and the final group […] received 120 μg. […] The first patient underwent a dynamic scan at 6 time points in 1 h. The remaining 8 patients underwent PET/CT at 1 h after injection, and 6 of those were also scanned at 2 h after injection (2 patients were unable to tolerate the full 2-h examination). […] Images were reconstructed with ordered-subset expectation maximization. CT reconstruction used a standard method with a 512 × 512 matrix and a layer thickness of 3–5 mm. CT data were used to correct the PET images for attenuation. Vital signs, laboratory studies, and electrocardiograms were obtained before injection, during the screening period, and 2 d after PET/CT.

in vivo = settings: NOD/SCID, mouse, iv, 7.4 MBq (~0.17 ug), total radioactivity
CHO-hPD-L1 tumors = test: Small-animal PET of NOD/SCID mice bearing CHO-hPD-L1 tumors; settings: 50 μg blocking dose coinjected
[5] = First-in-human PET/CT in advanced NSCLC patients: tumor uptake and biodistribution; settings: human, iv
Method: (§1) Patients were injected intravenously with ^68Ga-NOTA-WL12 (1.9–3.7 MBq/kg). To determine the optimal peptide dose required to obtain high-contrast images, an escalated nonradiolabeled WL12 mass dose was coadministered with the imaging agent. The first 2 patients received 0 μg, the next 3 received 5 ug, then 60 ug, and the final group of 3 received 120 μg. […] The first patient underwent a dynamic scan at 6 time points in 1 h. The remaining 8 patients underwent PET/CT at 1 h after injection, and 6 of those were also scanned at 2 h after injection (2 patients were unable to tolerate the full 2-h examination). […] Images were reconstructed with ordered-subset expectation maximization. CT reconstruction used a standard method with a 512 × 512 matrix and a layer thickness of 3–5 mm. CT data were used to correct the PET images for attenuation.
(§2) Images were analyzed by 2 experienced nuclear medicine physicians. The uptake parameters of major organs, tissues, and lesions were obtained to determine the organ biodistribution. SUVlean (SUL) was obtained by standardizing SUV to the body mass, which is less dependent on body habitus ([24]). […] Accordingly, we used SULmean and percentage of injected activity to describe radiopharmaceutical uptake in normal organs. To compare the uptake differences between the liver, spleen, small intestine (SI), and kidney among patients coadministered with different doses of WL12, multisite measurement was applied, and the uptake was calculated as an average of the number of patients corresponding to different dose administrations separately (Supplemental Fig. 3). To analyze normal organ uptake at different time points, 6 patients with 1- and 2-h imaging were involved. The maximum, peak, and mean values of SUV and SUL in biopsied lesions were obtained and used to correlate with PD-L1 TPS. Tumor uptake of ^68Ga-NOTA-WL12 higher than that of blood pool (BP) was considered positive.

PD-L1 = PD-L1 (Homo sapiens, UniProt Q9NZQ7); test: as above
PD-L1, sequence (Q9NZQ7 19-290): as above
Method: as §1, §2

[6] = tumor versus lung, total radioactivity
[7] = 0, 5, 60, 120 μg WL12 coadministered
[8] = 6 patients with 1- and 2-h imaging

OC[C@H]1OC(O)[C@H]([18F])[C@@H](O)[C@@H]1O (stereo partly drawn) [^18F-FDG]
uptake in tumors (NSCLC lesions [1]): intense
radiation dose of conventional PET/CT (NSCLC lesions [2]): 7.0–14 mSv

CCCC[C@H]1C(=O)N(C)[C@@H](CCCC)C(=O)N[C@@H](CCCNC(=O)CN2CCN(CC(=O)O)CCN(CC(=O)O)CC2)C(=O)N[C@H](C(=O)NCC(N)=O)CSCC(=O)N[C@@H](Cc2ccc(O)cc2)C(=O)N(C)[C@@H](C)C(=O)N[C@@H](CC(N)=O)C(=O)N2CCC[C@H]2C(=O)N[C@@H](Cc2c[nH]cn2)C(=O)N[C@@H](CC(C)C)C(=O)N2C[C@H](O)C[C@H]2C(=O)N[C@@H](Cc2c[nH]c3ccccc23)C(=O)N[C@@H](CO)C(=O)N[C@@H](Cc2cn(C)c3ccccc23)C(=O)N1C [^68Ga-NOTA-WL12, metal not drawn]
cellular uptake in vitro (PD-L1 (CHO-hPD-L1 cells)): PD-L1–specific uptake
tumor uptake in negative control CHO tumors (CHO tumors): minimal uptake
Effective dose per patient [3]: 4.1 mSv
changes in vital signs, laboratory studies, electrocardiograms ([4]; before injection, screening period and 2 d after PET/CT): No significant changes
adverse or pharmacologic effects ([4]; nine PET/CT examinations, 1.9–3.7 MBq/kg i.v.): no adverse or clinically detectable pharmacologic effects
tissue to tissue ratio at 2 h (in vivo; tumor-to-blood-pool uptake (T/BP)): 4.5 ± 0.2
tissue to tissue ratio at 2 h (in vivo; tumor-to-muscle uptake (T/M)): 19.1 ± 1.2
tumor uptake with coinjected blocking dose (in vivo specificity) (CHO-hPD-L1 tumors): decreased
SUV ([5]; blood pool, SUVmax of blood pool (BP), patient 3, before therapy): 1.78 SUV
SUV ([5]; left adrenal metastasis, SUVmax of left adrenal metastasis, patient 9, PD-L1 TPS 80%): 5.47 SUV
SUV ([5]; primary tumor in left lung, SUVmax of primary tumor in left lung, patient 3, PD-L1 TPS 8%): 1.84 SUV
SUV ([5]; primary tumor, SUVmax of primary tumor, patient 9, PD-L1 TPS 80%): 4.87 SUV
SUV ([5]; right sacral metastasis, SUVmax of right sacral metastasis, patient 3, PD-L1 TPS 8%): 0.8 SUV
tissue to tissue ratio at 1 h [5, 6]: 4.45 ± 1.89
tissue to tissue ratio at 2 h [5, 6]: 5.18 ± 2.27
SUV ([5]; tumor, SUVmax of tumor before treatment, patient 1, PD-L1 TPS 8%): 2.21 SUV
SUV ([5]; tumor, SUVmax of tumor before treatment, patient 6, PD-L1 TPS 30%): 3.05 SUV
change of liver uptake with increasing coadministered precursor dose (PD-L1; [7]): decreased
change of small intestine (SI) uptake with increasing coadministered precursor dose (PD-L1; [7]): increased
change of spleen uptake with increasing coadministered precursor dose (PD-L1; [7]): gradual decrease
kidney and BP uptake at 1 h versus mass of WL12 used (PD-L1; 0, 5, 60, 120 μg WL12 coadministered, 1 h): remained similar
change of SI uptake from 1 to 2 h (PD-L1; [8]): significant increase
change of liver uptake from 1 to 2 h (PD-L1; [8]): significant decrease
organ uptake pattern (biodistribution) (PD-L1; NSCLC patients, PET/CT): mainly observed in the SI and liver
route of clearance (PD-L1; NSCLC patients, from uptake in liver, SI and kidneys): primarily through the hepatobiliary system and secondarily through renal excretion
